Values after ≈ are worked out from the molar mass of the structure shown. No end group written: not given here.
Experiments:
E. coli DH5α = conditions: MHB, 18 hours at 37° C.; mean of four test series
Procedure, shortened: (§1)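 Broth microdilution MIC per CLSI/EUCAST, adapted for cationic peptides, in Mueller-Hinton broth. Peptides at final 64 to 0.25 μM (2-fold series) with 5·10^4 bacteria/ml, 18 h at 37° C with shaking; growth read as absorbance at 600 nm.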

Staphylococcus xylosus = conditions: MHB, 18 hours at 37° C.; mean of four test series
Procedure, shortened: as §1

E. coli ML-35p = assay: Kinetics of permeabilization of the inner bacteria membrane (ONPG); format: cell-based, Escherichia coli
Protocol: The ability of the antimicrobial peptides for the respective permeabilization of the outer and inner bacteria membrane was tested by way of example on E. coli ML-35p (made available by Dr. R. E. Lehrer, Center for Health Sciences, Los Angeles, Calif., USA). The peptides were incubated in serial dilution with E. coli ML-35p and the time-dependent release of cell-internal components was measured in a slightly modified protocol according to Ericsson et al. (2002). For this purpose, the bacteria were cultured in Luria-Bertani (LB) medium with 100 μg/ml ampicillin (Fluka, Taufkirchen, Germany) until reaching an optical density of 0.4 at 600 nm wavelength. Then, the cells were washed three times by centrifugation at 4000 g for 1 min and subsequent up-take in 10 mM HEPES buffer pH 7.2. Finally, the cells were diluted to an optical density of 0.3 at 600 nm wavelength. To measure the permeabilization of the outer membrane, nitrocefin (Merck, Darmstadt, Germany) was diluted in HEPES buffer to a concentration of 60 μg/ml. The antimicrobial peptides were diluted in HEPES buffer to an end concentration of 12 μM, 24 μM, 48 μM and 96 μM end concentration. In the next step, 50 μl of nitrocefin were admixed with 50 μl of antimicrobial peptide and 50 μl of bacteria suspension such that an end concentration of 20 μg/ml of nitrocefin, 4 μM to 32 μM of antimicrobial peptide and bacteria with an optical density of 0.1 to 600 nm were present. The samples were mixed and the absorption at 500 nm wavelength was measured directly over a period of at least 90 min at 37° C. with regular shaking in a FLUOstar omega Microplate Reader (BMG Labtech, Ortenberg, Germany). The investigation of the permeabilization of the inner membrane was carried out in the same way except that instead of the nitrocefin accordingly 0-nitrophenyl-beta-D-galactoside (ONPG, Sigma-Aldrich) in an end concentration of 100 μg/ml was used and the absorption change was determined at a wavelength of 420 nm. The control used was samples without antimicrobial peptide, the positive control used for the membrane permeabilization was polymyxin B (Sigma-Aldrich) in an end concentration of 5 μM. For the data evaluation, firstly the measurement values of the corresponding negative controls were deducted from the measurement values of the samples, and the difference was then divided by the corresponding measurement values of the permeabilization control. Then, a graphical evaluation was carried out, the calculated values being plotted against the peptide concentration and being fitted with the help of the Origin Pro 8.1 G Software (OriginLab) according to a sigmoidal model. As representative examples, FIGS. 4 and 5 show the graphical evaluation for the kinetic investigation of the permeabilization of the outer E. coli bacteria membrane for the peptides N4 (FIG. 4) and O1 (FIG. 5).
As comparison parameter between the peptides, the times were ascertained from this at which 50% of the final signal level was reached. For this purpose, the equation with the percentage membrane permeabilization y, the time x in minutes, the lower plateau A1, the upper plateau A2, the point of inflection Log X0 and the Hill incline p
[formula] was used. The calculation of the parameters A1, A2, Log X0 and p was performed by the program by reference to the compensating curve. Further resolution of equation 5.1 for the case y=50 then produced for x the desired time at which the half-maximum signal level was reached.

## CC[C@H](C)[C@H](NC(=O)CN)C(=O)NCC(=O)N[C@@H](C)C(=O)N[C@H](C(=O)N[C@@H](CC(C)C)C(=O)N[C@@H](CCCCN)C(=O)N[C@H](C(=O)N[C@@H](CC(C)C)C(=O)N[C@H](C(=O)N[C@H](C(=O)NCC(=O)N[C@@H](CC(C)C)C(=O)N1CCC[C@H]1C(=O)N[C@@H](C)C(=O)N[C@@H](CC(C)C)C(=O)N[C@H](C(=O)N[C@@H](CO)C(=O)N[C@@H](Cc1c[nH]c2ccccc12)C(=O)N[C@H](C(=O)N[C@@H](CCCCN)C(=O)N[C@@H](CCCNC(=N)N)C(=O)N[C@@H](CCCCN)C(=O)N[C@@H](CCCNC(=N)N)C(=O)N[C@@H](CCC(N)=O)C(=O)N[C@@H](CCC(N)=O)C(N)=O)[C@@H](C)CC)[C@@H](C)CC)[C@@H](C)O)[C@@H](C)O)C(C)C)C(C)C [Melittin]
E. coli DH5α
  MIC E. coli: 8 µM (≈ 22.8 µg/mL)
Staphylococcus xylosus
  MIC S. xylosus: 2 µM (≈ 5.69 µg/mL)
E. coli ML-35p; 4 μM peptide
  Inner membrane, time to 50% of final signal: 18 min
E. coli ML-35p; 8 μM peptide
  Inner membrane, time to 50% of final signal: 12 min
E. coli ML-35p; 16 μM peptide
  Inner membrane, time to 50% of final signal: 9 min
E. coli ML-35p; 32 μM peptide
  Inner membrane, time to 50% of final signal: 6 min

## ILPWKWPWWPWRR [Indolicidin]
E. coli DH5α
  MIC E. coli: 4 µM
Staphylococcus xylosus
  MIC S. xylosus: 32 µM
E. coli ML-35p; 4 μM peptide
  Inner membrane, time to 50% of final signal: >90 min
E. coli ML-35p; 8 μM peptide
  Inner membrane, time to 50% of final signal: >90 min
E. coli ML-35p; 16 μM peptide
  Inner membrane, time to 50% of final signal: >90 min
E. coli ML-35p; 32 μM peptide
  Inner membrane, time to 50% of final signal: >90 min

## KILILIKRK-OH [N4]
E. coli DH5α
  MIC E. coli: 32 µM
Staphylococcus xylosus
  MIC S. xylosus: 16 µM
E. coli ML-35p; 4 μM peptide
  Inner membrane, time to 50% of final signal: >90 min
E. coli ML-35p; 8 μM peptide
  Inner membrane, time to 50% of final signal: >90 min
E. coli ML-35p; 16 μM peptide
  Inner membrane, time to 50% of final signal: >90 min
E. coli ML-35p; 32 μM peptide
  Inner membrane, time to 50% of final signal: >90 min

## KRKRKILILIKRK-OH [N1]
E. coli DH5α
  MIC E. coli: 8 µM
Staphylococcus xylosus
  MIC S. xylosus: 0.5 µM
E. coli ML-35p; 4 μM peptide
  Inner membrane, time to 50% of final signal: >90 min
E. coli ML-35p; 8 μM peptide
  Inner membrane, time to 50% of final signal: >90 min
E. coli ML-35p; 16 μM peptide
  Inner membrane, time to 50% of final signal: 38 min
E. coli ML-35p; 32 μM peptide
  Inner membrane, time to 50% of final signal: 32 min

## MPRRRRSSSRPVRRRRRPRVSRRRRRRGGRRR (Protamine) [protamine from salmon, grade IV, histone-free (Sigma-Aldrich)]
E. coli DH5α
  MIC E. coli: 8 µM
Staphylococcus xylosus
  MIC S. xylosus: 0.5 µM
E. coli ML-35p; 4 μM peptide
  Inner membrane, time to 50% of final signal: >90 min
E. coli ML-35p; 8 μM peptide
  Inner membrane, time to 50% of final signal: >90 min
E. coli ML-35p; 16 μM peptide
  Inner membrane, time to 50% of final signal: >90 min
E. coli ML-35p; 32 μM peptide
  Inner membrane, time to 50% of final signal: >90 min

From patent US10556926B2, “Synthetic artificial peptides with antimicrobial effect” (priority 2014, dated 2020)
